Holding throughout (assay type): biochemical
The target in test [1] is T1, chimeric pig-baboon uricase variant 1 (dURC1), F75Q/K79E/T83Q/E90H/F96H/I100H/Y105D/V119K/Y127H/F172Y/L260N, SEQ ID NO: 1 (Sus scrofa, UniProt P16164, E96H/F102H/F178Y/F81Q/I106H/K85E/L266N/R291K/S46T/T301S/T89Q/V125K/Y111D/Y133H).
T1 construct: purified
T1 sequence (P16164 with tags, fused parts or gaps S46T/F81Q/K85E/T89Q/E96H/F102H/I106H/Y111D/V125K/Y133H/F178Y/L266N/R291K/T301S): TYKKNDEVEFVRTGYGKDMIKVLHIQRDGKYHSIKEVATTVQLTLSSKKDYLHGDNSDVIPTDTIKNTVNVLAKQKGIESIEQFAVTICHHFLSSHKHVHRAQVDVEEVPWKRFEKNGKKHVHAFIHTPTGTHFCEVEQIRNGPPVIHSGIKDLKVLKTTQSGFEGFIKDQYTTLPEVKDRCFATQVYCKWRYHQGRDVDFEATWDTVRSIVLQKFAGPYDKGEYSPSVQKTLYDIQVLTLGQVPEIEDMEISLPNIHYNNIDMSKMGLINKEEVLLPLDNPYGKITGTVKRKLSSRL
Description: Michaelis Menten kinetics of uric acid conversion, dURC1. As to conditions: role: substrate; purified enzyme, non-linear regression; Table 3. As to the method: (§1) Variants 1 (dURC1) and 3 (dURC3) were identified as possible lead candidates. Besides the mutations according to the library design, i.e., the designed mutations of F75Q; K79N; T83Q; E90H; F96H; I100E; Y105D; V119K; F172Y; L260N; and I262T, dURC3 comprised an off-position amino acid mutation K76N. An off-position amino acid mutation is defined as having a non-designed amino acid at a non-target site. […] Specifically, in the dURC1 backbone, the following mutations were tested separately: L154T; K155D; K155N; L157H; L157T; T159E; T159Q; and S162D; and in the dURC3 backbone, the K155N mutation was tested. […] The characteristics, including yield, activity, melting temperature measured by DSF, temperature at which 50% of normal activity was lost after heating measured by heat stress activity assay, Michaelis-Menten kinetics parameters, of variants 1, 2, 3, and 4 (i.e., dURC1, dURC2, dURC3 and dURC4), as well as the wild type chimeric pig-baboon uricase, are summarized in Table 2. The amino acid sequences of dURC1, dURC2, dURC3 and dURC4 are shown as SEQ ID NO: 1, 2, 3, and 4, respectively.
(§2) The activity of the purified enzymes was quantified by Michaelis Menten kinetic analysis, using the solution phase microplate assay across a range of substrate concentrations (FIG. 4B).

The target of test [2] is T2, chimeric pig-baboon uricase variant 4 (dURC4), F75Q/K76N/K79N/T83Q/E90H/F96H/I100E/Y105D/V119K/K155N/F172Y/L260N/I262T, SEQ ID NO: 4 (Sus scrofa, UniProt P16164, E96H/F102H/F178Y/F81Q/I106E/I268T/K161N/K82N/K85N/L266N/R291K/S46T/T301S/T89Q/V125K/Y111D).
T2 construct: purified
T2 sequence (P16164 with tags, fused parts or gaps S46T/F81Q/K82N/K85N/T89Q/E96H/F102H/I106E/Y111D/V125K/K161N/F178Y/L266N/I268T/R291K/T301S): T1 sequence (P16164 with tags, fused parts or gaps S46T/F81Q/K85E/T89Q/E96H/F102H/I106H/Y111D/V125K/Y133H/F178Y/L266N/R291K/T301S) with K76N, E79N, H100E, H127Y, K155N, I262T
Description: Michaelis Menten kinetics of uric acid conversion, dURC4. As to conditions: role: substrate; purified enzyme, non-linear regression; Table 3. As to the method:
as §1, §2

The target of test [3] is T3, chimeric pig-baboon uricase, wild type, SEQ ID NO: 5 (Sus scrofa, UniProt P16164, R291K/S46T/T301S).
T3 construct: His6 (C); made in house; host or cells: E. coli
T3 sequence (P16164 with tags, fused parts or gaps S46T/R291K/T301S): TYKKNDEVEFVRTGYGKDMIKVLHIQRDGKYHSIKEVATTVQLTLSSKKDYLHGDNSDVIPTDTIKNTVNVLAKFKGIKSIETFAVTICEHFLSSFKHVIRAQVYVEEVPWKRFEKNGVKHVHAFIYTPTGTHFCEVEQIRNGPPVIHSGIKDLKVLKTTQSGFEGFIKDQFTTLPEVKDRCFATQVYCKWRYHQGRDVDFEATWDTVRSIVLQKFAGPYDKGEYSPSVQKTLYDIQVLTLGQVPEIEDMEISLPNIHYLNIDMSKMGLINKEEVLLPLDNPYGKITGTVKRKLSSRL
Description: Michaelis Menten kinetics of uric acid conversion, wild type chimeric pig-baboon uricase. As to conditions: role: substrate; purified enzyme, non-linear regression; Table 3.
Text: The monomeric form of the wild type chimeric pig-baboon uricase comprises the amino acid sequence of SEQ ID NO:5, where threonine is residue #1. The specified mutations in the chimeric pig-baboon uricase variants of this example are indexed to threonine as residue #1, as in SEQ ID NO:5. […] The expression vector pET-26b(+) encodes a His tag containing 6 histidine residues at the C-terminus of the inserted uricase gene.
as §2

The target of test [4] is T4, chimeric pig-baboon uricase variant 3 (dURC3), F75Q/K76N/K79N/T83Q/E90H/F96H/I100E/Y105D/V119K/F172Y/L260N/I262T, SEQ ID NO: 3 (Sus scrofa, UniProt P16164, E96H/F102H/F178Y/F81Q/I106E/I268T/K82N/K85N/L266N/R291K/S46T/T301S/T89Q/V125K/Y111D).
T4 construct: purified
T4 sequence (P16164 with tags, fused parts or gaps S46T/F81Q/K82N/K85N/T89Q/E96H/F102H/I106E/Y111D/V125K/F178Y/L266N/I268T/R291K/T301S): T1 sequence (P16164 with tags, fused parts or gaps S46T/F81Q/K85E/T89Q/E96H/F102H/I106H/Y111D/V125K/Y133H/F178Y/L266N/R291K/T301S) with K76N, E79N, H100E, H127Y, I262T
Nature of the test: Michaelis Menten kinetics of uric acid conversion, dURC3. As to conditions: role: substrate. The method, then:
An off-position amino acid mutation is defined as having a non-designed amino acid at a non-target site. […] Specifically, in the dURC1 backbone, the following mutations were tested separately: L154T; K155D; K155N; L157H; L157T; T159E; T159Q; and S162D; and in the dURC3 backbone, the K155N mutation was tested. […] The amino acid sequences of dURC1, dURC2, dURC3 and dURC4 are shown as SEQ ID NO: 1, 2, 3, and 4, respectively.
as §2

In test [5] the target is T5, PEGylated chimeric pig-baboon uricase, wild type, SEQ ID NO: 5 (Sus scrofa, UniProt P16164, R291K/S46T/T301S).
T5 construct: His6 (C); made in house; host or cells: E. coli
T5 sequence (P16164 with tags, fused parts or gaps S46T/R291K/T301S limits assumed): T3 sequence (P16164 with tags, fused parts or gaps S46T/R291K/T301S)
Nature of the test: Michaelis Menten kinetics of uric acid conversion, PEGylated wild type chimeric pig-baboon uricase. As to conditions: role: substrate, Table 4. The method, then: (§3) PEGylation of the wild type chimeric pig-baboon uricase or its variants was performed by the following procedure: • (1) adding 50 fold molar excess methoxy-PEG-(CH2)5COO—NHS of 10 kDa in molecular weight (Chemical Name: Poly(oxy-1,2-ethanediyl), α-methyl-ω-{2-[(2,5-dioxo-1-pyrrolidinyl)oxy]-6-oxohexyloxy}; NOF America Corporation, Cat #SUNBRIGHT ME-100HS) to purified uricase protein on ice and incubating with stirring for one hour; • (2) verifying radius by DLS (14-15 nm radius ~=wild type); • (3) concentrating PEGylated protein using stirred cell with 50 kDa filter to 15 ml; • (4) loading the concentrated PEGylated protein onto a SUPERDEX 200 HILOAD 26/600 column and eluting with PBS; • (5) pooling fractions identified as being mono-disperse by DLS; • (6) concentrating the pooled fractions using a stirred cell with 50 kDa filter to 5 mg/ml.
(§4) dURC3 and the wild type chimeric pig-baboon uricase were successfully PEGylated, with an average of about 10 PEG molecules conjugated to a uricase monomer, based on SDS-PAGE and size exclusion chromatography with multi-angle static light scattering (SEC-MALS) analysis. The activity quantified by Michaelis Menten kinetic analysis, as well as the melting temperature quantified by differential scanning fluorimetry, of PEGylated dURC3 and PEGylated wild type chimeric pig-baboon uricase was determined using the methods described in Example 1.

The target of test [6] is T6, chimeric pig-baboon uricase variant 2 (dURC2), F75Q/K79E/T83Q/E90H/F96H/I100H/Y105D/V119K/Y127H/K155N/F172Y/L260N, SEQ ID NO: 2 (Sus scrofa, UniProt P16164, E96H/F102H/F178Y/F81Q/I106H/K161N/K85E/L266N/R291K/S46T/T301S/T89Q/V125K/Y111D/Y133H).
T6 construct: purified
T6 sequence (P16164 with tags, fused parts or gaps S46T/F81Q/K85E/T89Q/E96H/F102H/I106H/Y111D/V125K/Y133H/K161N/F178Y/L266N/R291K/T301S): T1 sequence (P16164 with tags, fused parts or gaps S46T/F81Q/K85E/T89Q/E96H/F102H/I106H/Y111D/V125K/Y133H/F178Y/L266N/R291K/T301S) with K155N
Nature of the test: Michaelis Menten kinetics of uric acid conversion, dURC2. As to conditions: role: substrate; purified enzyme, non-linear regression; Table 3. The method, then: as §1, §2

Test [7] has as its target T7, PEGylated chimeric pig-baboon uricase variant dURC3, F75Q/K76N/K79N/T83Q/E90H/F96H/I100E/Y105D/V119K/F172Y/L260N/I262T, SEQ ID NO: 3 (Sus scrofa, UniProt P16164, E96H/F102H/F178Y/F81Q/I106E/I268T/K82N/K85N/L266N/R291K/S46T/T301S/T89Q/V125K/Y111D).
T7 construct: purified, PEGylated with 10 kDa mPEG-NHS, about 10 PEG per monomer
T7 sequence (P16164 with tags, fused parts or gaps S46T/F81Q/K82N/K85N/T89Q/E96H/F102H/I106E/Y111D/V125K/F178Y/L266N/I268T/R291K/T301S): T1 sequence (P16164 with tags, fused parts or gaps S46T/F81Q/K85E/T89Q/E96H/F102H/I106H/Y111D/V125K/Y133H/F178Y/L266N/R291K/T301S) with K76N, E79N, H100E, H127Y, I262T
Nature of the test: Michaelis Menten kinetics of uric acid conversion, PEGylated dURC3. As to conditions: role: substrate, Table 4. As to the method:
as §3, §4

Numbering of substitutions follows the chain as printed.

Turning to `O=c1[nH]c(=O)c2[nH]c(=O)[nH]c2[nH]1` [uric acid], the Apparent kcat is listed as 43 ± 2 arbitrary units in test [1]; 28.0 ± 0.5 arbitrary units in test [2]; 30 ± 1 arbitrary units in test [3]; 40 ± 2 arbitrary units in test [4] (purified enzyme, non-linear regression, Table 3); 34 ± 1 arbitrary units in test [6]. In addition, the “higher apparent kcat compared to the wild type” value in test [4] (dURC3 relative to wild type chimeric pig-baboon uricase) was found to be 33%. The Vmax is given as 170 Δabs/min in test [5] and 67 Δabs/min in test [7].

The values are drawn from US20260308536A1, “NOVEL URICASE VARIANTS AND METHODS OF USE THEREOF” (priority 2023, published 2026).
